Test results reported in patent US8987193B2, “Nisin derivatives and the use thereof” (University College Cork—National University of Ireland, Cork, priority 2008, dated 2015).
“Also recorded” adds a separate entry of the source. Ends that are not written are not given here.

Experiments:
[1] = system: Strep. agalactiae ATCC13813; test: Deferred antagonism assay; type: cell-based; settings: producing strain, diameter of zone minus 5 mm, average of duplicates
Description: (§1) Deferred antagonism assays were performed by replicating strains on GM17 or GM17 x-gal agar plates and allowing them to grow overnight before overlaying with either GM17/BHI/TS/MH agar (0.75% w/v agar) seeded with the appropriate indicator strain. Zone size was calculated as the diameter of the zone of clearing minus the diameter of bacterial growth (5 mm) For higher throughput screening of N20PXX, XM21VX, XXK22T and XXX banks deferred antagonism assays were performed by replicating strains using a 96 pin replicator (Boekel) or spotting 5 μl of a fresh overnight culture on GM17 agar plates and allowing them to grow overnight. […] Additional sets of indicators were employed to further assess/reassess the bioactivity of a number of strains. […] For well-diffusion assays molten agar was cooled to 48° C. and seeded with the appropriate indicator strain. The inoculated medium was rapidly transferred into sterile Petri plates in 50 ml volumes, allowed to solidify and dried. Wells (4.6 mm in diameter) were then made in the seeded plates. Purified nisin and mutant nisins were resuspended in 0.005% acetic acid, serially diluted, 50 μl volumes were dispensed into the aforementioned wells and the plates incubated at 37° C. overnight. Bioactivity was expressed as arbitrary units/ml (AU/ml) and calculated as the reciprocal of the highest dilution that gave a definite zone multiplied by the conversion factor (i.e. 20 when 50 μl was used) (Ryan et al., 1996).
(§2) As a consequence of the enhanced activities of K22T and K22S, a more in-depth investigation of this region was carried out. Saturation mutagenesis was undertaken to create a bank of nisin A hinge derivatives containing the vast majority of possible amino acid substitutions for each position. Although pPTPL was used successfully for random mutagenesis, its relatively large size of approx 10.5 kb was considered unsuitable for the complete plasmid PCR amplification approach utilized for saturation mutagenesis. A smaller (approx 6 kb) E. coli-L. lactis shuttle vector pCI372 was considered to be potentially more useful. Its suitability with respect to the in trans expression of nisA was confirmed by the ability of pDFO5 to restore the nisin positive phenotype. Saturation mutagenesis was performed on each codon using pDF05 and oligonucleotides (Table 5) that replace the specific codon with a NNK triplet, potentially encoding all 20 standard amino acids. Following complete plasmid amplification and introduction into the intermediate Top10 host, sequence analysis of a pooled bank of pDF05 derivatives confirmed randomization. Introduction of these variants into L. lactis NZ9800 allowed the expression of mutant nisin A peptides for further analysis. […] 46 residue conversions were isolated. All strains, regardless of bioactivity, were assessed with a view to comprehensively assessing the consequences of each individual hinge alteration.
(§3) Values are an average of duplicate experiments and represent zone size (diameter of zone minus diameter of bacterial growth (i.e. 5 mm) relative to that of the NZ9800 pCI372nisA control. X=Mutants not identified.

[2] = system: Staph. aureus ST528 (MRSA); test: Deferred antagonism assay; type: cell-based; settings: producing strain, diameter of zone minus diameter of bacterial growth (5 mm), average of duplicates
Description: as §1, §2, §3

Staph. aureus DPC5245 = test: Deferred antagonism assay; type: cell-based; settings: producing strain; diameter of zone minus 5 mm; average of duplicates; St. aureus DPC5245
Description: as §1, §2, §3

L. lactis CBC7 = test: Deferred antagonism assay; type: cell-based; design: key: + = Enhanced bioactivity relative to control; − = Bioactivity equal to or less than control; NA = no activity evident; settings: XX and XXX hinge mutant producers
Description: as §1, §2

L. lactis CBC8 = test: Deferred antagonism assay; type: cell-based; design: key: + = Enhanced bioactivity relative to control; − = Bioactivity equal to or less than control; NA = no activity evident; settings: XX and XXX hinge mutant producers
Description: as §1, §2

S. aureus CBC4 = test: Deferred antagonism assay; type: cell-based; design: key: + = Enhanced bioactivity relative to control; − = Bioactivity equal to or less than control; NA = no activity evident; settings: XX and XXX hinge mutant producers
Description: as §1, §2

L. plantarum CBC6 = test: Deferred antagonism assay; type: cell-based, Lactobacillus plantarum; design: key: + = Enhanced bioactivity relative to control; − = Bioactivity equal to or less than control; NA = no activity evident; settings: XX and XXX hinge mutant producers
Description: as §1, §2

L. monocytogenes CBC1 = test: Deferred antagonism assay; type: cell-based, Listeria monocytogenes; design: key: + = Enhanced bioactivity relative to control; − = Bioactivity equal to or less than control; NA = no activity evident; settings: L. mono CBC1; XX and XXX hinge mutant producers
Description: as §1, §2

L. monocytogenes CBC3 = test: Deferred antagonism assay; type: cell-based, Listeria monocytogenes; design: key: + = Enhanced bioactivity relative to control; − = Bioactivity equal to or less than control; NA = no activity evident; settings: L. mono CBC3; XX and XXX hinge mutant producers
Description: as §1, §2

L. monocytogenes CBC2 = test: Deferred antagonism assay; type: cell-based, Listeria monocytogenes; design: key: + = Enhanced bioactivity relative to control; − = Bioactivity equal to or less than control; NA = no activity evident; settings: L. mono CBC2; XX and XXX hinge mutant producers
Description: as §1, §2

indicator strains = test: Deferred antagonism assays, various indicator strains (summary); type: cell-based; settings: for Target strain against which the hinge mutant was selected for enhanced bioactivity: XX and XXX banks, L. lactis HP*: enhanced or equal; for Target strain against which the hinge mutant was selected for enhanced bioactivity / Strain(s) against which the derivative (producing strain) displays enhanced bioactivity: relative to nisin A-producing control; for Strain(s) against which the derivative (producing strain) displays enhanced bioactivity: value = strains listed; for number of targets with enhanced activity: of the 8 additional targets tested
Description: as §1

Substance | zone size relative to that of the NZ9800 pCI372nisA control [1] [%] | zone size relative to that of the NZ9800 pCI372nisA control [2] [%] | zone size relative to that of the NZ9800 pCI372nisA control (Staph. aureus DPC5245) [%] | bioactivity relative to a nisin A-producing control (L. lactis CBC7) | bioactivity relative to a nisin A-producing control (L. lactis CBC8) | bioactivity relative to a nisin A-producing control (S. aureus CBC4) | bioactivity relative to a nisin A-producing control (L. plantarum CBC6) | bioactivity relative to a nisin A-producing control (L. monocytogenes CBC1) | bioactivity relative to a nisin A-producing control (L. monocytogenes CBC3) | bioactivity relative to a nisin A-producing control (L. monocytogenes CBC2) | Target strain against which the hinge mutant was selected for enhanced bioactivity (indicator strains) | Strain(s) against which the derivative (producing strain) displays enhanced bioactivity (indicator strains) | number of targets with enhanced activity (indicator strains)
K22E: nisin A derivative, hinge substitution K22E; no detectable production (ITSISLCTPGCKTGALMGCNMETATCHCSIHVSK; cysteine pairing not given here; also: lantibiotic nisin-A; UniProt P13068 24-57, looked up, variant K22E) | 0 | 0 | 0 |  |  |  |  |  |  |  |  |  | 
NisinA PAT (ITSISLCTPGCKTGALMGCPATTATCHCSIHVSK; not fully specified (bridges); also: lantibiotic nisin-A: lanthionine rings and dehydrated residues, places not given here; UniProt P13068 24-57, looked up, variant N20P M21A K22T) [nisin A hinge variant PAT (i.e. N20P, M21A, K22T)] |  |  |  | − | − | − | − | − | − | − | Strep. agalactiae ATCC 13813 | S. agalactiae ATCC13813 | 
N20Y: nisin A derivative, hinge substitution N20Y (ITSISLCTPGCKTGALMGCYMKTATCHCSIHVSK; cysteine pairing not given here; also: lantibiotic nisin-A; UniProt P13068 24-57, looked up, variant N20Y) | 30.5 | 33.5 | 55 |  |  |  |  |  |  |  |  |  | 
NisinA PTA |  |  |  | − | − | − | − | − | − | − | C. sporogenes UCC1 | C. sporogenes UCC1 | 
NisinA HLT (ITSISLCTPGCKTGALMGCHLTTATCHCSIHVSK; cysteine pairing not given here; also: lantibiotic nisin-A; UniProt P13068 24-57, looked up, variant N20H M21L K22T) [nisin A hinge variant HLT (i.e. N20H, M21L, K22T)] |  |  |  | + | − | + | − | − | + | + | Strep. agalactiae ATCC 13813 | S. agalactiae ATCC13813, L. monocytogenes CBC2 and CBC3, S. aureus CBC4 and L. lactis CBC7; also recorded: S. agalactiae ATCC13813, L. mono CBC2, CBC3, S. aureus | 4
NisinA PAL (ITSISLCTPGCKTGALMGCPALTATCHCSIHVSK; not fully specified (bridges); also: lantibiotic nisin-A: lanthionine rings and dehydrated residues, places not given here; UniProt P13068 24-57, looked up, variant N20P M21A K22L) [nisin A hinge variant PAL (i.e. N20P, M21A, K22L)] |  |  |  | + | + | + | − | − | − | + | C. sporogenes UCC1 | C. sporogenes UCC1, S. aureus CBC4, L. lactis CBC7 and CBC8, L. monocytogenes CBC2 and an additional 10 L. monocytogenes and 2 L. innocua; also recorded: C. sporogenes UCC1, L. mono CBC2, S. aureus CBC4, L. lactis | 4
NisinA PMC |  |  |  | + | − | + | − | − | + | − | B. cereus UCC1 | L. monocytogenes CBC3, S. aureus CBC4 and L. lactis CBC7; also recorded: L. mono CBC3, S. aureus CBC4, L. lactis CBC7 | 3
NisinA SVA (ITSISLCTPGCKTGALMGCSVATATCHCSIHVSK; not fully specified (bridges); also: lantibiotic nisin-A: lanthionine rings and dehydrated residues, places not given here; UniProt P13068 24-57, looked up, variant N20S M21V K22A) [nisin A hinge variant SVA (i.e. N20S, M21V, K22A)] |  |  |  | + | + | + | − | − | + | + | C. sporogenes UCC1 | C. sporogenes UCC1, L. monocytogenes CBC2 , CBC3, S. aureus CBC4 and L. lactis CBC7 , CBC8; also recorded: C. sporogenes UCC1, L. mono CBC2, CBC3, S. aureus | 5
NisinA PMQ |  |  |  | + | + | + | − | − | + | − | Strep. agalactiae ATCC 13813/B. cereus UCC1 | S. agalactiae ATCC13813, B. cereus UCC1, L. monocytogenes CBC3, S. aureus CBC4 , and L. lactis CBC7 , CBC8; also recorded: S. agalactiae ATCC13813, B. cereus UCC1, L. mono CBC3, | 4
